Results published in the NIST ThermoML archive (doi:10.1021/acs.jced.8b01062).
Numbers after ± are expanded uncertainties.

Key:
[1] = Crystal; DSC
[2] = Molar enthalpy of transition or fusion; settings: Crystal; DSC

Triple point temperature [1]: 465.45 ± 0.81 K
Molar enthalpy of transition or fusion [2]: 4.64 ± 0.21 kcal/mol
Structure (SMILES): CC#C[C@]1(O)CC[C@H]2[C@@H]3CCC4=CC(=O)CCC4=C3[C@@H](c3ccc(N(C)C)cc3)C[C@@]21C [mifepristone]
